Measured values taken from ChEMBL document CHEMBL5150017, “Mechanism of Action and Structure-Activity Relationship of α-Conotoxin Mr1.1 at the Human α9α10 Nicotinic Acetylcholine Receptor” (J Med Chem, 2022).
The source made the active and inactive calls. The calls are words filed in the database; no cut-off is given here. Positions of bridges follow the written chain, without caps; N, C: chain ends. Non-standard residues stand in square brackets, D forms with d. Residues, ends and D or L forms follow the SMILES beside them. ξ: configuration not given here. Cit = NC(=O)NCCC[C@H](N)C(=O)O; Dap = NC[C@H](N)C(=O)O; ξDab = NCCC(N)C(=O)O

What was measured:
[1] = molecular target: T1, Neuronal acetylcholine receptor; alpha9/alpha10 (Homo sapiens) (UniProt Q9UGM1+Q9GZZ6); experiment: Antagonist activity at human alpha9alpha10 nAChR expressed in Xenopus laevis oocytes assessed as inhibition of ACh-induced current amplitude at -80 mV holding potential at 100 nM by two-electrode voltage clamp method; assay type: cell-based; conditions: Oocyte
[2] = molecular target: T1, Neuronal acetylcholine receptor; alpha9/alpha10 (Homo sapiens); experiment: Antagonist activity at human alpha9alpha10 nAChR expressed in Xenopus laevis oocytes assessed as inhibition of ACh-induced current amplitude at -80 mV holding potential at 1 uM by two-electrode voltage clamp method; assay type: cell-based; conditions: Oocyte

Row | Compound | inhibition [1] [%] | inhibition ([1]; filed as antagonist) | other results
1 | CC[C@H](C)[C@@H]1NC(=O)[C@H](CC(=O)O)NC(=O)[C@@H]2CCCN2C(=O)[C@H](CC(N)=O)NC(=O)[C@H](CC(N)=O)NC(=O)[C@H](C(C)C)NC(=O)[C@H](CO)NC(=O)[C@@H]2CSSC[C@H](NC(=O)CN)C(=O)N[C@@H](CSSC[C@@H](C(=O)N[C@@H](Cc3ccc(O)cc3)C(N)=O)NC1=O)C(=O)N[C@@H](CO)C(=O)N[C@@H](Cc1cnc[nH]1)C(=O)N1CCC[C@H]1C(=O)N[C@@H](C)C(=O)N2 (H-GCCSHPACSVNNPDICY-NH2; disulfide 2-8, 3-16) | 15 |  | 
2 | CC[C@H](C)[C@@H]1NC(=O)[C@H](CC(=O)O)NC(=O)[C@@H]2CCCN2C(=O)[C@H](CC(N)=O)NC(=O)[C@H](CC(N)=O)NC(=O)[C@H](CCCNC(N)=O)NC(=O)[C@H](CO)NC(=O)[C@@H]2CSSC[C@H](NC(=O)CN)C(=O)N[C@@H](CSSC[C@@H](C(N)=O)NC1=O)C(=O)N[C@@H](CO)C(=O)N[C@@H](Cc1cnc[nH]1)C(=O)N1CCC[C@H]1C(=O)N[C@@H](C)C(=O)N2 (H-GCCSHPACS[Cit]NNPDIC-NH2; disulfide 2-8, 3-16) | < 5 |  | 
3 | CC[C@H](C)[C@@H]1NC(=O)[C@H](CCC(=O)O)NC(=O)[C@@H]2CCCN2C(=O)[C@H](CC(N)=O)NC(=O)[C@H](CC(N)=O)NC(=O)[C@H](C(C)C)NC(=O)[C@H](CO)NC(=O)[C@@H]2CSSC[C@H](NC(=O)CN)C(=O)N[C@@H](CSSC[C@@H](C(N)=O)NC1=O)C(=O)N[C@@H](CO)C(=O)N[C@@H](Cc1cnc[nH]1)C(=O)N1CCC[C@H]1C(=O)N[C@@H](C)C(=O)N2 (H-GCCSHPACSVNNPEIC-NH2; disulfide 2-8, 3-16) |  |  | inhibition [2]: 20%; inhibition ([2]; filed as antagonist): 40%
4 | CC[C@H](C)[C@@H]1NC(=O)[C@H](CC(=O)O)NC(=O)[C@@H]2CCCN2C(=O)[C@H](CC(N)=O)NC(=O)[C@H](CC(N)=O)NC(=O)[C@H](CN)NC(=O)[C@H](CO)NC(=O)[C@@H]2CSSC[C@H](NC(=O)CN)C(=O)N[C@@H](CSSC[C@@H](C(N)=O)NC1=O)C(=O)N[C@@H](CO)C(=O)N[C@@H](Cc1c[nH]cn1)C(=O)N1CCC[C@H]1C(=O)N[C@@H](C)C(=O)N2 (H-GCCSHPACS[Dap]NNPDIC-NH2; disulfide 2-8, 3-16) |  | Active | 
5 | CC[C@H](C)[C@@H]1NC(=O)[C@H](CC(=O)O)NC(=O)[C@@H]2CCCN2C(=O)[C@H](CC(N)=O)NC(=O)[C@H](CC(N)=O)NC(=O)[C@H](C(C)C)NC(=O)[C@H](CO)NC(=O)[C@@H]2CSSC[C@H](NC(=O)CN)C(=O)N[C@@H](CSSC[C@@H](C(N)=O)NC1=O)C(=O)N[C@@H]([C@@H](C)O)C(=O)N[C@@H](Cc1cnc[nH]1)C(=O)N1CCC[C@H]1C(=O)N[C@@H](C)C(=O)N2 (H-GCCTHPACSVNNPDIC-NH2; disulfide 2-8, 3-16) | 10 |  | 
6 | CC[C@H](C)[C@@H]1NC(=O)[C@H](CC(=O)O)NC(=O)[C@@H]2CCCN2C(=O)[C@H](CC(N)=O)NC(=O)[C@H](CC(N)=O)NC(=O)C(CCN)NC(=O)[C@H](CO)NC(=O)[C@@H]2CSSC[C@H](NC(=O)CN)C(=O)N[C@@H](CSSC[C@@H](C(N)=O)NC1=O)C(=O)N[C@@H](CO)C(=O)N[C@@H](Cc1cnc[nH]1)C(=O)N1CCC[C@H]1C(=O)N[C@@H](C)C(=O)N2 (some centres undefined) (H-GCCSHPACS[ξDab]NNPDIC-NH2; disulfide 2-8, 3-16) | 35 | Active | 
7 | CC[C@H](C)[C@@H]1NC(=O)[C@H](CC(=O)O)NC(=O)[C@@H]2CCCN2C(=O)[C@H](CC(N)=O)NC(=O)[C@H](CC(N)=O)NC(=O)[C@H](C(C)C)NC(=O)[C@H](CN)NC(=O)[C@@H]2CSSC[C@H](NC(=O)CN)C(=O)N[C@@H](CSSC[C@@H](C(N)=O)NC1=O)C(=O)N[C@@H](CO)C(=O)N[C@@H](Cc1c[nH]cn1)C(=O)N1CCC[C@H]1C(=O)N[C@@H](C)C(=O)N2 (H-GCCSHPAC[Dap]VNNPDIC-NH2; disulfide 2-8, 3-16) |  | Active | 
